The results in this text go back to ChEMBL document CHEMBL3638391, “Flap modulators” (2015).

The structures appear in SMILES notation. pKi: −log10 of the molar value.

The target of the test is T1, Arachidonate 5-lipoxygenase-activating protein (Homo sapiens, UniProt P20292).
T1 sequence (P20292 whole entry): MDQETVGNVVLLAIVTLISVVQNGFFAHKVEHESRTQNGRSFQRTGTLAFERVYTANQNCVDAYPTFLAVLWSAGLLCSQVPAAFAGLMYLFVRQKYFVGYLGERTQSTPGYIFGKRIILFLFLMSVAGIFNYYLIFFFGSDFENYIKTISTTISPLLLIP
In words: Homogeneous Time Resolved Fluorescence Assay: The assay below is used to test the modulatory activity of compounds against FLAP. Human and mouse FLAP-encoding DNA was amplified by polymerase chain reaction and cloned into pFastBacl (Invitrogen) with a NH2-terminal 6-His tag for expression in Spodoptera frugiperda (Sf-9) cells. FLAP-containing membranes were prepared as was a FITC-labeled FLAP ….

Description: Homogeneous Time Resolved Fluorescence Assay: The assay below is used to test the modulatory activity of compounds against FLAP. Human and mouse FLAP-encoding DNA was amplified by polymerase chain reaction and cloned into pFastBacl (Invitrogen) with a NH2-terminal 6-His tag for expression in Spodoptera frugiperda (Sf-9) cells. FLAP-containing membranes were prepared as was a FITC-labeled FLAP modulator [5-[({[2-(2-{3-[3-(tert-Butylsulfanyl)-1-(4-chlorobenzyl)-5-(quinolin-2-ylmethoxy)-1H-indol-2-yl]-2,2-dimethylpropanoyl}hydrazino)-2-oxoethyl]sulfanyl}acetyl)amino]-2-(6-hydroxy-3-oxo-3H-xanthen-9-yl)benzoic acid]. The FLAP binding assay is performed in HTRF format (homogeneous time resolved fluorescence).

Usually pKi stands for the negative decadic logarithm of the Ki, by convention in mol/L. `C[C@@H]([C@@H](O)c1ccccc1)N(C)S(=O)(=O)c1ccccc1-c1ccc(-c2ccc(N)nc2)c(F)c1` gave a pKi of 8.49.
